Data on seven compounds can be found in ChEMBL document CHEMBL1154232, “Cerebrosides of the halotolerant fungus Alternaria raphani isolated from a sea salt field” (J Nat Prod, 2009).

In brackets after ≈: the same amount, converted by molar mass.

By IC50 is commonly meant the concentration needed to halve the response being measured. For orientation: MIC means the lowest concentration found to suppress growth. Lower therefore signals greater potency.

Assay [1] relates to A549. Put plainly: Cytotoxicity against human A549 cells after 72 hrs by MTT assay. It is filed as functional, cell-based. The note with it: A549, 72 h.
Assay [2] has as its system Bel-7402. In words: Cytotoxicity against human Bel7402 cells after 72 hrs by MTT assay. The assay is classed as functional, cell-based. The note with it: Bel-7402, 72 h.
Assay [3] deals with Radical scavenging activity. In words: Antioxidant activity assessed as DPPH free radical scavenging activity after 30 mins. It is filed as functional.
Assay [4] relates to Bacillus subtilis. Put plainly: Antibacterial activity against Bacillus subtilis after 24 hrs by agar dilution method. It is filed as functional.
The test system of assay [5] is P388. In words: Cytotoxicity against mouse P388 cells after 24 hrs by SRB assay. The assay is classed as functional, cell-based. Particulars: P388, 24 h. In general terms: The SRB assay estimates cell density from bound dye.
In assay [6] the test system is Escherichia coli. In words: Antibacterial activity against Escherichia coli after 24 hrs by agar dilution method. The assay is classed as functional. (Agar dilution tests growth on a series of plates holding different concentrations.)
Assay [7] relates to HL-60. In words: Cytotoxicity against human HL60 cells after 24 hrs by SRB assay. It is filed as functional, cell-based. Particulars: HL-60, 24 h.
For assay [8], the system named is Candida albicans. In words: Antifungal activity against Candida albicans after 24 hrs by agar dilution method. It is filed as functional.

For `C=C(CCCCCCCCC)C(=O)CC/C=C/[C@@H](O)[C@H](CO[C@@H]1O[C@H](CO)[C@@H](O)[C@H](O)[C@H]1O)NC(=O)[C@H](O)/C=C/CCCCCCCCCCCCCC` [ALTERNAROSIDE A], the half-maximal inhibitory concentration (IC50) in assay [1] is more than 100 µM; in assay [2] it was more than 100 µM; in assay [3], more than 500 µM; in assay [5], more than 100 µM; in assay [7], more than 100 µM. Moreover, the MIC stood at 130 µM (≈ 99.9 µg/mL) in assay [4], 130 µM (≈ 99.9 µg/mL) in assay [6] and 260 µM (≈ 200 µg/mL) in assay [8].

In the case of `CCCCCCCCCCCCCC/C=C/[C@@H](O)C(=O)N[C@@H](CO[C@@H]1O[C@H](CO)[C@@H](O)[C@H](O)[C@H]1O)[C@H](O)/C=C/CC/C=C(\C)CCCCCCCC` [ALTERNAROSIDE B], the IC50 in assay [1] was more than 100 µM; in assay [2] it was more than 100 µM; in assay [3], more than 500 µM; in assay [5], more than 100 µM; in assay [7], more than 100 µM. Besides, the MIC amounted to 68 µM (≈ 50.3 µg/mL) in assay [4], 135 µM (≈ 99.9 µg/mL) in assay [6] and 270 µM (≈ 200 µg/mL) in assay [8].

Turning to `CCCCCCCCC/C=C\CC/C=C/[C@@H](O)[C@H](CO[C@@H]1O[C@H](CO)[C@@H](O)[C@H](O)[C@H]1O)NC(=O)[C@H](O)/C=C/CCCCCCCCCCCCCC` [ALTERNAROSIDE C], the IC50 is more than 100 µM in assay [1]; more than 100 µM in assay [2]; more than 500 µM in assay [3]; more than 100 µM in assay [5]; more than 100 µM in assay [7]. Further, the minimal inhibitory concentration (MIC) is 135 µM (≈ 99.9 µg/mL) in assay [4], 135 µM (≈ 99.9 µg/mL) in assay [6] and 270 µM (≈ 200 µg/mL) in assay [8].

With `O=C1O[C@H]([C@@H](O)CO)C(O)=C1O` [ASCORBIC ACID], the half-maximal inhibitory concentration (IC50) in assay [3] was found to be 22 µM.

Turning to `O=C(O)c1cn(C2CC2)c2cc(N3CCNCC3)c(F)cc2c1=O` [CIPROFLOXACIN LACTATE], the MIC in assay [4] came to 7.42 µM. In other words, the single-digit micromolar range.

With `COc1cc([C@@H]2c3cc4c(cc3[C@@H](O[C@@H]3O[C@@H]5CO[C@@H](C)O[C@H]5[C@H](O)[C@H]3O)[C@H]3COC(=O)[C@H]23)OCO4)cc(OC)c1O` [ETOPOSIDE], the IC50 in assay [1] turned out to be 0.63 µM; in assay [2], 1.03 µM; in assay [5], 0.05 µM; in assay [7] it was 0.042 µM.

`OC(Cn1cncn1)(Cn1cncn1)c1ccc(F)cc1F` [FLUCONAZOLE]: in assay [8], inhibition of growth (MIC) required 5.1 µM (≈ 1.56 µg/mL). That is a single-digit micromolar value.
